Data published in article PMC9506480, “Synthesis and Evaluation of Antiproliferative Activity, Topoisomerase IIα Inhibition, DNA Binding and Non-Clinical Toxicity of New Acridine–Thiosemicarbazone Derivatives” (Pharmaceuticals, 2022).

Key:
[1] = system: HCT116 (human colon carcinoma); assay: Alamar blue cytotoxicity assay, HCT116; assay type: cell-based; settings: HCT-116, 72 h incubation
Description: (§1) The in vitro cytotoxic activity of the compounds (Table 1) was evaluated against cancer cell lines HCT116 (human colon carcinoma), HepG2 (human hepatocellular carcinoma), B16F10 (murine melanoma carcinoma) and non-cancerous cell line MRC-5 (human lung fibroblast) using the Alamar blue assay after 72 h of incubation; doxorubicin (DOX) was used as a positive control. The unsubstituted derivatives on the acridine cores were encoded as CL, and the disubstituted derivatives as DL.
(§2) The human cancer cell lines HCT116 (colon carcinoma) and HepG2 (hepatocellular carcinoma), the mouse cancer cell line B16-F10 (melanoma), and the non-cancerous human cell line MRC-5 (lung fibroblast) were obtained from the American Type Culture Collection (ATCC, Manassas, VA, USA) and cultured according to the ATCC animal cell culture guide. All cell lines tested negative for mycoplasma using a mycoplasma stain kit.
(§3) Cell viability was measured using the Alamar blue assay, as previously described. Cells were seeded in 96-well plates for all experiments. The compounds were dissolved in dimethyl sulfoxide (DMSO, Sigma-Aldrich) and added to each well in eight serial concentrations ranging from 0.19 to 25 μg/mL. As a positive control, doxorubicin was used. After 72 h of treatment, 20 μL of resazurin (0.312 mg/mL) was added to each well. A SpectraMax 190 Micro-plate Reader was used to measure absorbances at 570 and 595 nm (Molecular Devices, Sunnyvale, CA, USA). Nonlinear regression with 95% confidence intervals (CI 95%) was used to calculate the inhibitory concentration of 50% (IC50) using GraphPad Prism software (Intuitive Software for Science; San Diego, CA, USA).

[2] = system: B16-F10 (murine melanoma); assay: Alamar blue cytotoxicity assay, B16-F10; assay type: cell-based; settings: Mus musculus, 72 h incubation
Description: as §1, §2, §3

[3] = system: HepG2 (human hepatocellular carcinoma); assay: Alamar blue cytotoxicity assay, HepG2; assay type: cell-based; settings: 72 h incubation
Description: as §1, §2, §3

[4] = system: MRC-5 (human lung fibroblast); assay: Alamar blue cytotoxicity assay, non-cancerous MRC-5; assay type: cell-based; settings: MRC5, 72 h incubation, non-cancerous cell
Description: as §1, §2, §3

[5] = biological target: T1, recombinant human topoisomerase IIα (p170) (Homo sapiens, UniProt P11388); assay: Human topoisomerase IIα inhibition assay (pUC19 plasmid relaxation); assay type: biochemical
T1 construct: purchased Sigma-Aldrich
Description: Several studies have shown the ability of acridines to inhibit topoisomerases, being considered the main mechanism responsible for the antiproliferative activities of this scaffold. The possibility of the new acridine derivatives to inhibit Topo IIα in its biological function of DNA double-strand relaxation was investigated in this work. This enzymatic inhibition can be accompanied by the presence of a supercoiled or relaxed DNA band, performed with the pUC19 plasmid, as shown in Figure 2. In this study, mAMSA was used as a positive inhibition control.
For testing the ability of Topo IIα inhibition, the compounds were evaluated in the DNA plasmid relaxation assay. This test consists of evaluating the Topo IIα enzyme activity in the absence and presence of the compound, followed by electrophoresis analysis, as previously described by Almeida et al. (2016). Briefly, 100 ng pUC19 DNA plasmid (Sigma-Aldrich) and 4.0 units of recombinant human (p170) topoisomerase II (Sigma-Aldrich) in relaxation buffer without or with tested compounds were incubated for 30 min at 37 °C. The tested concentrations were […], and amsacrine (mAMSA) was used as a positive control. Reactions were terminated with 1% SDS and digested with proteinase K. Then, the reaction products were analyzed by electrophoresis gel stained with ethidium bromide and photographed under UV light. Quantitative evaluation (% of enzyme inhibition by compounds about the positive control mAMSA) of the gel bands corresponding to supercoiled DNA was performed by densitometry using image-processing software (Scion Image, version Beta 4.0.2.) according to Gouveia et al. (2018).
Figure 2 Effects of mAMSA and its acridine derivatives on topoisomerase IIα activity. Effects of derivatives and positive control on the inhibition of human topoisomerase IIα. Native supercoiled pUC19 was incubated for 30 min at 37 °C with […] of human Topo IIα in the absence (lane 2) or presence of ligands at a concentration 100 μM. Inhibition of Topo IIα-induced DNA relaxation by mAMSA (lane 3) was used as a positive control. DNA samples were run on an agarose gel followed by ethidium bromide staining.

T1 sequence (P11388 whole entry): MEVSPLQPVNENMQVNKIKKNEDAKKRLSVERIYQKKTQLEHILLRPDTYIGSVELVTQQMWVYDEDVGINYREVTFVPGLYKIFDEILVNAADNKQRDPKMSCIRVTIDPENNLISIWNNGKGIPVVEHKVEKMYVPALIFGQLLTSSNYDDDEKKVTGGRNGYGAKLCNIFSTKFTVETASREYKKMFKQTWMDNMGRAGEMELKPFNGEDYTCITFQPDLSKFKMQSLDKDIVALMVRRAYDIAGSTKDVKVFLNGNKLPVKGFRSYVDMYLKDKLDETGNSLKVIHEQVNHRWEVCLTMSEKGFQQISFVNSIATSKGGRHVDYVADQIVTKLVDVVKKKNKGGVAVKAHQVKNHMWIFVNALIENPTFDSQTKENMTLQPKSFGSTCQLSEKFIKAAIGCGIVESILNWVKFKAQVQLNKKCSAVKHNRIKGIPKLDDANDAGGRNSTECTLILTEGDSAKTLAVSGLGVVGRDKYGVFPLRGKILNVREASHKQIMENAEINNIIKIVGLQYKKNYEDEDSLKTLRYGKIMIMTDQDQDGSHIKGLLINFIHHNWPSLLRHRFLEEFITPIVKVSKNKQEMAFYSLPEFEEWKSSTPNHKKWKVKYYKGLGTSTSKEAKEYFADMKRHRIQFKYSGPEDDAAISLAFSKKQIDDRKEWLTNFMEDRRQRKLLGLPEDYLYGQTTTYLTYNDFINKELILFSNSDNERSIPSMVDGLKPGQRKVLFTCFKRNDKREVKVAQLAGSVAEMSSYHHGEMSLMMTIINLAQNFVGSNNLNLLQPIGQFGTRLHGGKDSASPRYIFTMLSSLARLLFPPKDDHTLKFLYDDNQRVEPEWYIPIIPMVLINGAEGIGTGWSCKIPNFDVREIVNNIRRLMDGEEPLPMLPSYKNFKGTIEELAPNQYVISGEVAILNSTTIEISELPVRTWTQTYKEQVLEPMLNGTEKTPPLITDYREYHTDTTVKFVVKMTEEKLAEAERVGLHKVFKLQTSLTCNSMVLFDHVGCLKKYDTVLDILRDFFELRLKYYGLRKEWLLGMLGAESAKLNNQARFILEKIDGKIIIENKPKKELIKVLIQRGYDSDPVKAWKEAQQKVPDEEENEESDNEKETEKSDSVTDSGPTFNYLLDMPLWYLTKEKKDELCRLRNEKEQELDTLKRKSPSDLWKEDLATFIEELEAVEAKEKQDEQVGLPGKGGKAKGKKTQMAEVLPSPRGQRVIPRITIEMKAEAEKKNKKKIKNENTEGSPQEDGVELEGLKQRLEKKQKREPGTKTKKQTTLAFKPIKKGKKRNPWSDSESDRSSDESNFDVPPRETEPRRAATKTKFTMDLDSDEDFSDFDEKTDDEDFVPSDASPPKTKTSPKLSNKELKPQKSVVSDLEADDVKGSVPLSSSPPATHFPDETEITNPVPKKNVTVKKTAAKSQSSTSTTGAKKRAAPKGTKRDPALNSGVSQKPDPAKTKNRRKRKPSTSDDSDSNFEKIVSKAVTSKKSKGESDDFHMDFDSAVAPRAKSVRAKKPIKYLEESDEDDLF

| melting point [°C] | inhibition of Topo IIα enzymatic activity (in words) ([5]; 100 µM) | % of enzyme inhibition ([5]; 100 µM, densitometry, relative to positive control mAMSA, '-' = no inhibition) [%] | inhibition at 100 µM ([5]; densitometry, relative to positive control mAMSA, '-' = no inhibition, read-out: % of enzyme inhibition) [%] | SMILES | IC50 [1] [µM] | IC50 [2] [µM] | IC50 [3] [µM] | IC50 [4] [µM] |
| --- | --- | --- | --- | --- | --- | --- | --- | --- |
| 192 to 193 |  |  |  | COc1ccc2nc3cc(Cl)ccc3c(NC(=S)N/N=C/c3ccc(Cl)cc3Cl)c2c1 [DL-04, (E)-N-(6-chloro-2-methoxyacridin-9-yl)-2-(2,4-dichlorobenzylidene)hydrazine-1-carbothioamide] | > 60 | > 60 | > 60 | > 60 |
| 164 to 165 |  |  |  | COc1ccc2nc3cc(Cl)ccc3c(NC(=S)N/N=C/c3ccc([N+](=O)[O-])cc3)c2c1 [DL-05, (E)-N-(6-chloro-2-methoxyacridin-9-yl)-2-(4-nitrobenzylidene)hydrazine-1-carbothioamide] | > 60 | > 60 | > 60 | > 60 |
|  |  |  |  | COc1cccc2c1C(=O)c1c(O)c3c(c(O)c1C2=O)C[C@@](O)(C(=O)CO)C[C@@H]3O[C@H]1C[C@H](N)[C@H](O)[C@H](C)O1 [DOX, doxorubicin, reference compound] | 0.15 | 0.03 | 0.15 | 2.22 |
| 162 to 163 |  |  |  | COc1ccc2nc3cc(Cl)ccc3c(NC(=S)N/N=C/c3ccc(Br)cc3)c2c1 [DL-10, (E)-2-(4-bromobenzylidene)-N-(6-chloro-2-methoxyacridin-9-yl)hydrazine-1-carbothioamide] | > 50 | 34.6 | 20.9 | > 50 |
|  |  |  |  | COc1ccc(/C=N/NC(=S)Nc2c3ccccc3nc3ccccc23)cc1 [CL-03, (E)-N-(acridin-9-yl)-2-(4-methoxybenzylidene)hydrazine-1-carbothioamide] | > 70 | > 70 | > 70 | > 70 |
|  |  |  |  | CN(C)c1ccc(/C=N/NC(=S)Nc2c3ccccc3nc3ccccc23)cc1 [CL-09, (E)-N-(acridin-9-yl)-2-(4-(dimethylamino)benzylidene)hydrazine-1-carbothioamide] | > 60 |  | > 60 | > 60 |
|  |  |  |  | S=C(N/N=C/c1ccc(Cl)cc1)Nc1c2ccccc2nc2ccccc12 [CL-02, (E)-N-(acridin-9-yl)-2-(4-chlorobenzylidene)hydrazine-1-carbothioamide] | > 70 |  | > 70 | > 70 |
|  |  |  |  | S=C(N/N=C/c1ccc(Cl)cc1Cl)Nc1c2ccccc2nc2ccccc12 [CL-04, (E)-N-(acridin-9-yl)-2-(2,4-dichlorobenzylidene)hydrazine-1-carbothioamide] | > 60 |  | > 60 | > 60 |
| 144 to 145 |  |  |  | COc1ccc2nc3cc(Cl)ccc3c(NC(=S)N/N=C/c3ccc(Cl)cc3)c2c1 [DL-02, (E)-N-(6-chloro-2-methoxyacridin-9-yl)-2-(4-chlorobenzylidene)hydrazine-1-carbothioamide] | > 60 | 30.6 | > 60 | > 60 |
| 149 to 150 |  |  |  | COc1ccc2nc3cc(Cl)ccc3c(NC(=S)N/N=C/c3ccc(N(C)C)cc3)c2c1 [DL-09, (E)-N-(6-chloro-2-methoxyacridin-9-yl)-2-(4-(dimethylamino)benzylidene)hydrazine-1-carbothioamide] | > 60 | 46 | > 60 | > 60 |
|  |  |  |  | S=C(N/N=C/c1ccc(Br)cc1)Nc1c2ccccc2nc2ccccc12 [CL-10, (E)-N-(acridin-9-yl)-2-(4-bromobenzylidene)hydrazine-1-carbothioamide] | > 60 |  | > 60 | > 60 |
| 163 to 164 | able to inhibit the enzymatic activity | 74 | > 74 | COc1ccc2nc3cc(Cl)ccc3c(NC(=S)N/N=C/c3ccc(O)cc3)c2c1 [DL-07, (E)-N-(6-chloro-2-methoxyacridin-9-yl)-2-(4-hydroxybenzylidene)hydrazine-1-carbothioamide] | 28.5 | 21.1 | 24.8 | 23.6 |
|  |  |  |  | Oc1cccc(/C=N/NC(=S)Nc2c3ccccc3nc3ccccc23)c1 [CL-08, (E)-N-(acridin-9-yl)-2-(3-hydroxybenzylidene)hydrazine-1-carbothioamide] | 39.2 | 21.3 | 49.4 | 33.4 |
|  |  |  |  | Cc1ccc(/C=N/NC(=S)Nc2c3ccccc3nc3ccccc23)cc1 [CL-06, (E)-N-(acridin-9-yl)-2-(4-methylbenzylidene)hydrazine-1-carbothioamide] | 64.8 | 23.5 | 58.1 | 28 |
| 148 |  |  |  | COc1ccc(/C=N/NC(=S)Nc2c3ccc(Cl)cc3nc3ccc(OC)cc23)cc1 [DL-03, (E)-N-(6-chloro-2-methoxyacridin-9-yl)-2-(4-methoxybenzylidene)hydrazine-1-carbothioamide] | > 60 | > 60 | > 60 | > 60 |
|  |  |  |  | O=[N+]([O-])c1ccc(/C=N/NC(=S)Nc2c3ccccc3nc3ccccc23)cc1 [CL-05, (E)-N-(acridin-9-yl)-2-(4-nitrobenzylidene)hydrazine-1-carbothioamide] | > 60 | 22.7 | > 60 | 26.8 |
| 157 to 158 | did not show inhibition capacity |  |  | COc1ccc2nc3cc(Cl)ccc3c(NC(=S)N/N=C/c3ccc(C)cc3)c2c1 [DL-06, (E)-N-(6-chloro-2-methoxyacridin-9-yl)-2-(4-methylbenzylidene)hydrazine-1-carbothioamide] | > 60 | 26.3 | 33.4 | > 60 |
|  |  |  |  | S=C(N/N=C/c1ccccc1)Nc1c2ccccc2nc2ccccc12 [CL-01, (E)-N-(acridin-9-yl)-2-benzylidenehydrazine-1-carbothioamide] | > 70 |  | > 70 | > 70 |
